{
  "source": "patent US9417241B2",
  "about": "“5, 10, 15, 20-tetrakis (carboxyphenyl) porphine (TCPP) and kit for use with detecting cancer” (bioAffinity Technologies, Inc., priority 2000, dated 2016)",
  "key": {"[1]": {"tested_on": "sputum cells (dysplastic, pre-cancerous and cancerous cells)", "test": "Glass slide assay for detection of pre-cancerous and cancerous cells with TCPP (fluorescence microscopy of sputum monolayer slides vs PAP-stain cytomorphology)", "assay_type": "cell-based, human", "conditions": "for Slides with morphology using TCPP/Slides with morphology using cytomorphology: N = 60 blinded sputum samples, 40 μg/mL TCPP"}, "[2]": {"tested_on": "cancerous cells of the lung", "conditions": "incubation of a cell sample for 6-24 hours with 200 μg/ml TCPP; cited from earlier work"}, "[3]": {"conditions": "of the six TCPP samples with class 11 designation"}},
  "data": [
    {"smiles": "O=C(O)c1ccc(-c2c3nc(c(-c4ccc(C(=O)O)cc4)c4ccc([nH]4)c(-c4ccc(C(=O)O)cc4)c4nc(c(-c5ccc(C(=O)O)cc5)c5ccc2[nH]5)C=C4)C=C3)cc1", "note": "[TCPP]", "values": [
      {"measurement": "Number of Samples with Cells having Numerical Description by TCPP Fluorescence Microscopy/Number of Samples with Cell Description by Cytmorphology", "setting": "[1]; 9 = Degenerated cell clusters, medium to high fluorescence, Negative or metaplastic (n = 10)", "value": "0/10"},
      {"measurement": "Number of Samples with Cells having Numerical Description by TCPP Fluorescence Microscopy/Number of Samples with Cell Description by Cytmorphology", "setting": "[1]; 9 = Degenerated cell clusters, medium to high fluorescence, Severe dysplasia (n = 8)", "value": "0/8"},
      {"measurement": "Number of Samples with Cells having Numerical Description by TCPP Fluorescence Microscopy/Number of Samples with Cell Description by Cytmorphology", "setting": "[1]; 10 = Cells uniform size with small round nucleus, medium fluorescence (nucleus only), Adenicarcinoma, squamous cell and small cell carcinoma (n = 10)", "value": "2/10"},
      {"measurement": "Number of Samples with Cells having Numerical Description by TCPP Fluorescence Microscopy/Number of Samples with Cell Description by Cytmorphology", "setting": "[1]; 10 = Cells uniform size with small round nucleus, medium fluorescence (nucleus only), Carcinoma in situ (n = 11)", "value": "1/11"},
      {"measurement": "Number of Samples with Cells having Numerical Description by TCPP Fluorescence Microscopy/Number of Samples with Cell Description by Cytmorphology", "setting": "[1]; 10 = Cells uniform size with small round nucleus, medium fluorescence (nucleus only), Mild dysplasia (n = 12)", "value": "2/12"},
      {"measurement": "Number of Samples with Cells having Numerical Description by TCPP Fluorescence Microscopy/Number of Samples with Cell Description by Cytmorphology", "setting": "[1]; 10 = Cells uniform size with small round nucleus, medium fluorescence (nucleus only), Moderate dysplasia (n = 9)", "value": "2/9"},
      {"measurement": "Number of Samples with Cells having Numerical Description by TCPP Fluorescence Microscopy/Number of Samples with Cell Description by Cytmorphology", "setting": "[1]; 10 = Cells uniform size with small round nucleus, medium fluorescence (nucleus only), Negative or metaplastic (n = 10)", "value": "2/10"},
      {"measurement": "Number of Samples with Cells having Numerical Description by TCPP Fluorescence Microscopy/Number of Samples with Cell Description by Cytmorphology", "setting": "[1]; 10 = Cells uniform size with small round nucleus, medium fluorescence (nucleus only), Severe dysplasia (n = 8)", "value": "1/8"},
      {"measurement": "Number of Samples with Cells having Numerical Description by TCPP Fluorescence Microscopy/Number of Samples with Cell Description by Cytmorphology", "setting": "[1]; 11 = Cell membrane barely visible, medium fluorescence, Adenicarcinoma, squamous cell and small cell carcinoma (n = 10)", "value": "0/10"},
      {"measurement": "Number of Samples with Cells having Numerical Description by TCPP Fluorescence Microscopy/Number of Samples with Cell Description by Cytmorphology", "setting": "[1]; 11 = Cell membrane barely visible, medium fluorescence, Carcinoma in situ (n = 11)", "value": "2/11"},
      {"measurement": "Number of Samples with Cells having Numerical Description by TCPP Fluorescence Microscopy/Number of Samples with Cell Description by Cytmorphology", "setting": "[1]; 11 = Cell membrane barely visible, medium fluorescence, Mild dysplasia (n = 12)", "value": "6/12"},
      {"measurement": "Number of Samples with Cells having Numerical Description by TCPP Fluorescence Microscopy/Number of Samples with Cell Description by Cytmorphology", "setting": "[1]; 11 = Cell membrane barely visible, medium fluorescence, Moderate dysplasia (n = 9)", "value": "2/9"},
      {"measurement": "Number of Samples with Cells having Numerical Description by TCPP Fluorescence Microscopy/Number of Samples with Cell Description by Cytmorphology", "setting": "[1]; 11 = Cell membrane barely visible, medium fluorescence, Negative or metaplastic (n = 10)", "value": "6/10"},
      {"measurement": "Number of Samples with Cells having Numerical Description by TCPP Fluorescence Microscopy/Number of Samples with Cell Description by Cytmorphology", "setting": "[1]; 11 = Cell membrane barely visible, medium fluorescence, Severe dysplasia (n = 8)", "value": "2/8"},
      {"measurement": "Number of Samples with Cells having Numerical Description by TCPP Fluorescence Microscopy/Number of Samples with Cell Description by Cytmorphology", "setting": "[1]; 12 = Nuclear debris clumps, no fluorescence, Adenicarcinoma, squamous cell and small cell carcinoma (n = 10)", "value": "0/10"},
      {"measurement": "Number of Samples with Cells having Numerical Description by TCPP Fluorescence Microscopy/Number of Samples with Cell Description by Cytmorphology", "setting": "[1]; 12 = Nuclear debris clumps, no fluorescence, Carcinoma in situ (n = 11)", "value": "0/11"},
      {"measurement": "Number of Samples with Cells having Numerical Description by TCPP Fluorescence Microscopy/Number of Samples with Cell Description by Cytmorphology", "setting": "[1]; 12 = Nuclear debris clumps, no fluorescence, Mild dysplasia (n = 12)", "value": "1/12"},
      {"measurement": "Number of Samples with Cells having Numerical Description by TCPP Fluorescence Microscopy/Number of Samples with Cell Description by Cytmorphology", "setting": "[1]; 12 = Nuclear debris clumps, no fluorescence, Moderate dysplasia (n = 9)", "value": "0/9"},
      {"measurement": "Number of Samples with Cells having Numerical Description by TCPP Fluorescence Microscopy/Number of Samples with Cell Description by Cytmorphology", "setting": "[1]; 12 = Nuclear debris clumps, no fluorescence, Negative or metaplastic (n = 10)", "value": "0/10"},
      {"measurement": "Number of Samples with Cells having Numerical Description by TCPP Fluorescence Microscopy/Number of Samples with Cell Description by Cytmorphology", "setting": "[1]; 12 = Nuclear debris clumps, no fluorescence, Severe dysplasia (n = 8)", "value": "0/8"},
      {"measurement": "Number of Samples with Cells having Numerical Description by TCPP Fluorescence Microscopy/Number of Samples with Cell Description by Cytmorphology", "setting": "[1]; 13 = Nuclear debris background, no fluorescence, Adenicarcinoma, squamous cell and small cell carcinoma (n = 10)", "value": "3/10"},
      {"measurement": "Number of Samples with Cells having Numerical Description by TCPP Fluorescence Microscopy/Number of Samples with Cell Description by Cytmorphology", "setting": "[1]; 13 = Nuclear debris background, no fluorescence, Carcinoma in situ (n = 11)", "value": "5/11"},
      {"measurement": "Number of Samples with Cells having Numerical Description by TCPP Fluorescence Microscopy/Number of Samples with Cell Description by Cytmorphology", "setting": "[1]; 13 = Nuclear debris background, no fluorescence, Mild dysplasia (n = 12)", "value": "5/12"},
      {"measurement": "Number of Samples with Cells having Numerical Description by TCPP Fluorescence Microscopy/Number of Samples with Cell Description by Cytmorphology", "setting": "[1]; 13 = Nuclear debris background, no fluorescence, Moderate dysplasia (n = 9)", "value": "8/9"},
      {"measurement": "Number of Samples with Cells having Numerical Description by TCPP Fluorescence Microscopy/Number of Samples with Cell Description by Cytmorphology", "setting": "[1]; 13 = Nuclear debris background, no fluorescence, Negative or metaplastic (n = 10)", "value": "6/10"},
      {"measurement": "Number of Samples with Cells having Numerical Description by TCPP Fluorescence Microscopy/Number of Samples with Cell Description by Cytmorphology", "setting": "[1]; 13 = Nuclear debris background, no fluorescence, Severe dysplasia (n = 8)", "value": "2/8"},
      {"measurement": "Number of Samples with Cells having Numerical Description by TCPP Fluorescence Microscopy/Number of Samples with Cell Description by Cytmorphology", "setting": "[1]; 14 = Nuclear debris background, medium fluorescence, Adenicarcinoma, squamous cell and small cell carcinoma (n = 10)", "value": "0/10"},
      {"measurement": "Number of Samples with Cells having Numerical Description by TCPP Fluorescence Microscopy/Number of Samples with Cell Description by Cytmorphology", "setting": "[1]; 14 = Nuclear debris background, medium fluorescence, Carcinoma in situ (n = 11)", "value": "1/11"},
      {"measurement": "Number of Samples with Cells having Numerical Description by TCPP Fluorescence Microscopy/Number of Samples with Cell Description by Cytmorphology", "setting": "[1]; 14 = Nuclear debris background, medium fluorescence, Mild dysplasia (n = 12)", "value": "2/12"},
      {"measurement": "Number of Samples with Cells having Numerical Description by TCPP Fluorescence Microscopy/Number of Samples with Cell Description by Cytmorphology", "setting": "[1]; 14 = Nuclear debris background, medium fluorescence, Moderate dysplasia (n = 9)", "value": "2/9"},
      {"measurement": "Number of Samples with Cells having Numerical Description by TCPP Fluorescence Microscopy/Number of Samples with Cell Description by Cytmorphology", "setting": "[1]; 14 = Nuclear debris background, medium fluorescence, Negative or metaplastic (n = 10)", "value": "1/10"},
      {"measurement": "Number of Samples with Cells having Numerical Description by TCPP Fluorescence Microscopy/Number of Samples with Cell Description by Cytmorphology", "setting": "[1]; 14 = Nuclear debris background, medium fluorescence, Severe dysplasia (n = 8)", "value": "1/8"},
      {"measurement": "Avg. # numerical descriptions per cell examined", "setting": "[1]; Adenicarcinoma, squamous cell and small cell carcinoma (n = 10)", "value": 4.90},
      {"measurement": "Slides with morphology using TCPP/Slides with morphology using cytomorphology", "setting": "[1]; Adenocarcinoma, squamous cell and small cell carcinoma", "value": "10/10"},
      {"measurement": "Avg. # numerical descriptions per cell examined", "setting": "[1]; Carcinoma in situ (n = 11)", "value": 4.82},
      {"measurement": "Slides with morphology using TCPP/Slides with morphology using cytomorphology", "setting": "[1]; Carcinoma in situ", "value": "11/11"},
      {"measurement": "Avg. # numerical descriptions per cell examined", "setting": "[1]; Mild dysplasia (n = 12)", "value": 3.08},
      {"measurement": "Slides with morphology using TCPP/Slides with morphology using cytomorphology", "setting": "[1]; Mild dysplasia", "value": "12/12"},
      {"measurement": "Avg. # numerical descriptions per cell examined", "setting": "[1]; Moderate dysplasia (n = 9)", "value": 4.11},
      {"measurement": "Slides with morphology using TCPP/Slides with morphology using cytomorphology", "setting": "[1]; Moderate dysplasia", "value": "9/9"},
      {"measurement": "Avg. # numerical descriptions per cell examined", "setting": "[1]; Negative or metaplastic (n = 10)", "value": 1.80},
      {"measurement": "Slides with morphology using TCPP/Slides with morphology using cytomorphology", "setting": "[1]; Negative or metaplastic, 10 minutes, 36° C.", "value": "4/10"},
      {"measurement": "Avg. # numerical descriptions per cell examined", "setting": "[1]; Severe dysplasia (n = 8)", "value": 3.13},
      {"measurement": "Slides with morphology using TCPP/Slides with morphology using cytomorphology", "setting": "[1]; Severe dysplasia", "value": "8/8"},
      {"measurement": "Samples demonstrating the same morphology using the TCPP method", "setting": "[1]; among the ten samples characterized as normal or metaplastic by PAP-staining", "value": "four"},
      {"measurement": "Sputum samples mildly dysplastic to cancerous by PAP-staining also identified as abnormal by TCPP detection", "setting": "[1]; blinded study, 60 samples", "value": "Fifty out of fifty"},
      {"measurement": "Average number of numerical classifications assigned", "setting": "[1]; cells displaying adenicarcinoma, squamous cell and small cell carcinoma", "value": 5},
      {"measurement": "Average number of numerical classifications assigned", "setting": "[1]; cells having a negative or metaplastic morphology", "value": 2},
      {"measurement": "Samples also indicating fluorescence from nuclear debris (class 13 or 14)", "setting": "[1]; [3]", "value": "three"},
      {"measurement": "Samples also showing class 10 designation (fluorescence from the nucleus only)", "setting": "[1]; [3]", "value": "two"},
      {"measurement": "Samples designated with a class 11 cell description based on TCPP fluorescence", "setting": "[1]; of the ten cell samples negative or metaplastic by PAP-staining", "value": 6},
      {"measurement": "TCPP uptake", "setting": "[1]; samples diagnosed as normal", "value": "minimal or no TCPP uptake"},
      {"measurement": "TCPP-exposed cells fluorescing at which the sample reliably correlated with at least the mildly dysplastic diagnosis", "setting": "[1]; sputum monolayer slides", "value": "2-3%"},
      {"measurement": "Cellular uptake and localisation of TCPP", "setting": "[2]", "value": "bound to the perinuclear membrane and mitochondria of neoplastic cells"}
    ]}
  ]
}
